Results on 15 compounds are retold here after US8119805B2, “Substituted disulfonamide compounds” (Gruenenthal GmbH, priority 2008, dated 2012).

SMILES strings stand for the structures. Where a name gives a salt, the structure may show the parent alone.

Assay [1] deals with T1, B1R receptor of the rat (rB1R) (Rattus norvegicus, UniProt P97583).
T1 construct: expressed in transfected cells; host or cells: CHO K1 cells
T1 sequence (P97583 1-337): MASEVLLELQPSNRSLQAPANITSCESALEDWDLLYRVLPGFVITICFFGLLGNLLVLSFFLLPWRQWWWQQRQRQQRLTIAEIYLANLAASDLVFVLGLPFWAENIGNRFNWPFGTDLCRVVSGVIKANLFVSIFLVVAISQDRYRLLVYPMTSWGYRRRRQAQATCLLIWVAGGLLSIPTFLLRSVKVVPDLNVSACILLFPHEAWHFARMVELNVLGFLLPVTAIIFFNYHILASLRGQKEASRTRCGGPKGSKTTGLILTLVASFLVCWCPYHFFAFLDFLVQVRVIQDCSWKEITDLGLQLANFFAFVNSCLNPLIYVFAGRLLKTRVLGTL
As to the kind of experiment: Functional investigation on the bradykinin 1 receptor (B1R), FLIPR Ca2+ assay, rB1R cells. It counts as cell-based. The conditions noted are these: test substance 10 μM; CHO K1 cells transfected with rat B1R gene; Fluo-4 Ca2+ signal; agonist Des-Arg9-bradykinin at EC80; % of maximum achievable inhibition; read-out: B1R antagonism, rat [10 μM] % inhibition. As for the experimental part: (§1) The agonistic or antagonistic action of substances on the bradykinin 1 receptor (B1R) of the human and rat species can be quantified with ectopically expressing cell lines (CHO K1 cells) and with the aid of a Ca^2+-sensitive dyestuff (Fluo-4) in a fluorescent imaging plate reader (FLIPR). The value in % activation is based on the Ca^2+ signal after addition of Lys-Des-[…]-bradykinin (0.5 nM) or Des-[…]-bradykinin (100 nM). Antagonists lead to a suppression of the Ca^2+inflow after addition of the agonist. % inhibition compared with the maximum achievable inhibition is stated. The agonistic or antagonistic action of substances on the bradykinin 1 receptor (B1R) of the human and rat species can be determined with the following assay. In accordance with this assay, the Ca^2+ inflow through the channel is quantified with the aid of a Ca^2+-sensitive dyestuff (type Fluo-4, Molecular Probes Europe BV, Leiden, Holland) in a fluorescent imaging plate reader (FLIPR, Molecular Devices, Sunnyvale, USA). Chinese hamster ovary cells (CHO K1 cells) transfected stably with the human B1R gene (hB1R cells) or the B1R gene of the rat (rB1R cells) are used. For functional studies, these cells are plated out on black 96-well plates with a clear base (BD Biosciences, Heidelberg, Germany or Greiner, Frickenhausen, Germany) in a density of 20,000-35,000 cells/well. The cells are left overnight at 37° C. and 5% CO2 in culture medium (hB1R cells: Nutrient Mixture Ham's F12, Gibco Invitrogen GmbH, Karlsruhe, Germany or DMEM, Sigma-Aldrich, Taufkirchen, Germany; rB1R cells: D-MEM/F12, Gibco Invitrogen GmbH, Karlsruhe, Germany) with 10 vol. % FBS (foetal bovine serum, Gibco Invitrogen GmbH, Karlsruhe, Germany or PAN Biotech GmbH, Aidenbach, Germany). On the following day, the cells are loaded for 60 min at 37° C. with 2.13 μM Fluo-4 (Molecular Probes Europe BV, Leiden Holland) in HBSS buffer (Hank's buffered saline solution, Gibco Invitrogen GmbH, Karlsruhe, Germany) with 2.5 mM probenecid (Sigma-Aldrich, Taufkirchen, Germany) and 10 mM HEPES (Sigma-Aldrich, Taufkirchen, Germany). The plates are then washed 2× with HBSS buffer, and HBSS buffer which additionally contains 0.1% BSA (bovine serum albumin; Sigma-Aldrich, Taufkirchen, Germany), 5.6 mM glucose and 0.05% gelatine (Merck KGaA, Darmstadt, Germany) is added. After a further incubation of 20 minutes at room temperature, the plates are inserted into the FLIPR for the Ca^2+ measurement. Alternatively, the plates are washed with buffer A (15 mM HEPES, 80 mM NaCl, 5 mM KCl, 1.2 mM CaCl2, 0.7 mM MgSO4, 2 g/l glucose, 2.5 mM probenecid), buffer A is added and the plates are loaded with 2.5 μM Fluo-4 and 0.025% Pluronic F127 (Sigma-Aldrich, Taufkirchen, Germany). Thereafter, the cells are washed 2× with buffer A and incubated for 30 minutes at room temperature with buffer A, which additionally contains 0.05% BSA and 0.05% gelatine, and thereafter inserted into the FLIPR for the Ca^2+ measurement. The Ca^2+-dependent fluorescence is measured here before and after addition of substances (λex=488 nm, λem=540 nm). Quantification is by measurement of the highest fluorescence intensity (FC, fluorescence counts) over time. The FLIPR protocol consists of 2 additions of substance. Test substances (10 μM) are first pipetted on to the cells and the Ca^2+ inflow is compared with the control (hB1R: Lys-Des-[…]-bradykinin>=50 nM; rB1R: Des-[…]-bradykinin 10 μM). This gives the result in % activation based on the Ca^2+ signal after addition of Lys-Des-[…]-bradykinin (>=50 nM) or Des-[…]-bradykinin (10 μM). After incubation for 10-20 minutes, Lys-Des-[…]-bradykinin (hB1R) or Des-[…]-bradykinin (rB1R) at the EC80 concentration is applied and the inflow of Ca^2+ is likewise determined. Antagonists lead to a suppression of the Ca^2+ inflow. The percent inhibition compared to the maximum achievable inhibition is calculated. In order to determine the IC50 value, the substances are added in various concentrations. […]

In assay [2] the target is T2, human B1R receptor (hB1R) (Homo sapiens, UniProt P46663).
T2 construct: expressed in transfected cells; host or cells: CHO K1 cells
T2 sequence (P46663 1-353): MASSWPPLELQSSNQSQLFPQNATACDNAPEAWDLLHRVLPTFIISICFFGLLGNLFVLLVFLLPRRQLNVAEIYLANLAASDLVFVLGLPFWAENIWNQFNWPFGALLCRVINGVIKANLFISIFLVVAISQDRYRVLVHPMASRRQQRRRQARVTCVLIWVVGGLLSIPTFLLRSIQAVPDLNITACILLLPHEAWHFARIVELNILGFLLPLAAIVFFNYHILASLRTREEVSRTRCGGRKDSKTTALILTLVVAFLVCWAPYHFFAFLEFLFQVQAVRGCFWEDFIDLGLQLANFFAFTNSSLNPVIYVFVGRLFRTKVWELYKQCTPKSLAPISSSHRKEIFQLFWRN
As to the kind of experiment: Functional investigation on the bradykinin 1 receptor (B1R), FLIPR Ca2+ assay, hB1R cells. It counts as cell-based. The conditions noted are these: test substance 10 μM; CHO K1 cells transfected with human B1R gene; Fluo-4 Ca2+ signal; agonist Lys-Des-Arg9-bradykinin at EC80; % of maximum achievable inhibition; read-out: B1R antagonism, human [10 μM] % inhibition. As to the method: as §1

`COc1cc(C)c(S(=O)(=O)N2CCC(CCS(=O)(=O)N3CCC(CCN4CCCC4)CC3)C2)c(C)c1C` (stereo not drawn) [Example 16, 1-(2-(1-(4-Methoxy-2,3,6-trimethylphenylsulfonyl)pyrrolidin-3-yl)ethylsulfonyl)-4-(2-(pyrrolidin-1-yl)ethyl)piperidine hydrochloride]: the inhibition at 10 µM amounted to 13% in assay [1] and 97% in assay [2].
In the same order, the values of `O=S(=O)(CCC1CCN(S(=O)(=O)c2cccc(Cl)c2Cl)C1)N1CCC(CCN2CCCC2)CC1` (stereo not drawn) [Example 17, 1-(2-(1-(2,3-Dichlorophenylsulfonyl)pyrrolidin-3-yl)ethylsulfonyl)-4-(2-(pyrrolidin-1-yl)ethyl)piperidine hydrochloride] are 12% and 58%.
With `O=S(=O)(CCC1CCN(S(=O)(=O)c2cc(Cl)c(Cl)cc2Cl)C1)N1CCC(CCN2CCCC2)CC1` (stereo not drawn) [Example 18, 4-(2-(Pyrrolidin-1-yl)ethyl)-1-(2-(1-(2,4,5-trichlorophenylsulfonyl)pyrrolidin-3-yl)ethylsulfonyl)piperidine hydrochloride], the inhibition at 10 µM in assay [1] worked out at 11%; in assay [2] it was 65%.
Take `Cc1cc(S(=O)(=O)N2CCC(CCS(=O)(=O)N3CCC(CCN4CCCC4)CC3)C2)c(C)cc1Cl` (stereo not drawn) [Example 19, 1-(2-(1-(4-Chloro-2,5-dimethylphenylsulfonyl)pyrrolidin-3-yl)ethylsulfonyl)-4-(2-(pyrrolidin-1-yl)ethyl)piperidine]: the inhibition at 10 µM in assay [1] was found to be 13%; in assay [2], 77%.
In the same order, the values of `Cc1cc(C)c(S(=O)(=O)N2CCC(CCS(=O)(=O)N3CCN(c4ccncc4)CC3)C2)c(C)c1` (stereo not drawn) [Example 20, 1-(2-(1-(Mesitylsulfonyl)pyrrolidin-3-yl)ethylsulfonyl)-4-(pyridin-4-yl)piperazine hydrochloride] are 75% and 103%.
In the same order, the values of `O=S(=O)(CCC1CCN(S(=O)(=O)c2cccc(Cl)c2Cl)C1)N1CCN(c2ccncc2)CC1` (stereo not drawn) [Example 21, 1-(2-(1-(2,3-Dichlorophenylsulfonyl)pyrrolidin-3-yl)ethylsulfonyl)-4-(pyridin-4-yl)piperazine hydrochloride] are 73% and 97%.
In the same order, the values of `COc1cc(C)c(S(=O)(=O)N2CCC(CCS(=O)(=O)N3CCN(c4ccncc4)CC3)C2)c(C)c1C` (stereo not drawn) [Example 22, 1-(2-(1-(4-Methoxy-2,3,6-trimethylphenylsulfonyl)pyrrolidin-3-yl)ethylsulfonyl)-4-(pyridin-4-yl)piperazine] are 95% and 103%.
As to `Cc1cc(S(=O)(=O)N2CCC(CCS(=O)(=O)N3CCN(c4ccncc4)CC3)C2)c(C)cc1Cl` (stereo not drawn) [Example 23, 1-(2-(1-(4-Chloro-2,5-dimethylphenylsulfonyl)pyrrolidin-3-yl)ethylsulfonyl)-4-(pyridin-4-yl)piperazine], the values for the inhibition at 10 µM in assay [1] and in assay [2] were 78% and 102%, respectively.
For the compound `O=S(=O)(CCC1CCN(S(=O)(=O)c2ccc(Cl)c(Cl)c2)C1)N1CCN(c2ccncc2)CC1` (stereo not drawn) [Example 24, 1-(2-(1-(3,4-Dichlorophenylsulfonyl)pyrrolidin-3-yl)ethylsulfonyl)-4-(pyridin-4-yl)piperazine hydrochloride], the inhibition at 10 µM in assay [1] is 33%; in assay [2] it was 62%.
In the same order, the values of `COc1cc(C)c(S(=O)(=O)N2CCC(CCS(=O)(=O)N3CCC(CCN4CCCC4)CC3)C2)c(C)c1` (stereo not drawn) [Example 25, 1-(2-(1-(4-Methoxy-2,6-dimethylphenylsulfonyl)pyrrolidin-3-yl)ethylsulfonyl)-4-(2-(pyrrolidin-1-yl)ethyl)piperidine hydrochloride] are 90% and 103%.
In the same order, the values of `COc1cc(C)c(S(=O)(=O)N2CCCCC2CCCS(=O)(=O)N2CCN(C3CCN(C)CC3)CC2)c(C)c1` (stereo not drawn) [Example 26, 1-(3-(1-(4-Methoxy-2,6-dimethylphenylsulfonyl)piperidin-2-yl)propylsulfonyl)-4-(1-methylpiperidin-4-yl)piperazine] are 98% and 96%.
Consider `Cc1cccc(Cl)c1S(=O)(=O)N1CCC[C@H]1CCCS(=O)(=O)N1CCN(C2CCN(C)CC2)CC1` [Example 27, (S)-1-(3-(1-(2-Chloro-6-methylphenylsulfonyl)pyrrolidin-2-yl)propylsulfonyl)-4-(1-methylpiperidin-4-yl)piperazine], for which the inhibition at 10 µM was 93% in assay [1] and 108% in assay [2].
Regarding `CN1CCC(N2CCN(S(=O)(=O)CCC[C@@H]3CCCN3S(=O)(=O)c3c(Cl)cc(Cl)cc3Cl)CC2)CC1` [Example 28, (S)-1-(1-Methylpiperidin-4-yl)-4-(3-(1-(2,4,6-trichlorophenylsulfonyl)pyrrolidin-2-yl)propylsulfonyl)piperazine], the values for the inhibition at 10 µM in assay [1] and in assay [2] were 91% and 104%, respectively.
Consider `Cc1cc(S(=O)(=O)N2CCC[C@H]2CCCS(=O)(=O)N2CCN(C3CCN(C)CC3)CC2)c(C)cc1Cl` [Example 29, (S)-1-(3-(1-(4-Cloro-2,5-dimethylphenylsulfonyl)pyrrolidin-2-yl)propylsulfonyl)-4-(1-methylpiperidin-4-yl)piperazine], for which the inhibition at 10 µM in assay [1] came to 46%; in assay [2], 87%.
Take `CN1CCC(N2CCN(S(=O)(=O)CCC[C@@H]3CCCN3S(=O)(=O)c3cccc4ccccc34)CC2)CC1` [Example 30, (S)-1-(1-Methylpiperidin-4-yl)-4-(3-(1-(naphthalen-1-ylsulfonyl)pyrrolidin-2-yl)propylsulfonyl)piperazine]: the inhibition at 10 µM in assay [1] came out at 48%; in assay [2], 56%.
